{"source": "patent US10071130B2", "about": "“Methods and compositions related to Hsp90 inhibitors and breast cancer” (The University of Chicago, priority 2013, dated 2018)", "format_in_all_cases": "cell-based", "key": {"[1]": {"system": "AR target gene TMPRSS2", "assay": "qRT-PCR of AR target gene transcript"}, "[2]": {"system": "GR-α translational isoforms", "assay": "Western blot of GR protein after Hsp90 inhibitor treatment of TNBC cell lines", "details": "50 nM, 8 hrs", "experimental": "(§1) TNBC cell lines were pre-treated for 2 hours with dexamethasone (100 nM) followed by ganetespib (50 nM). Protein and transcript levels were analyzed using Western blot and qRT-PCR respectively."}, "[3]": {"system": "AR protein", "assay": "Western blot of AR protein after Hsp90 inhibitor treatment of TNBC cell lines", "details": "50 nM, 8 hrs", "experimental": "as §1"}, "[4]": {"system": "GR target gene transcripts (SGK1 and MKP1/DUSP1)", "assay": "qRT-PCR of GR target gene transcripts in TNBC cell lines", "details": "100 nM dex 2 hours, then ganetespib 50 nM", "experimental": "as §1\nThis induction was reduced following ganetespib (50 nM) treatment."}, "[5]": {"system": "GR target genes in MDA-MB-231", "assay": "Multiplex RT-PCR assay of GR target genes", "details": "MDA-MB-231, Veh/Veh = 1", "experimental": "The multiplex RT-PCR assay was performed to discover GR target genes that are affected by HSP90 inhibitor treatment of a triple-negative breast cancer cell line, MDA-MB-231."}}, "data": [{"molecule": "C[C@]1(O)CC[C@H]2[C@@H]3CCC4=CC(=O)CCC4=C3C=C[C@@]21C", "note": "[R1881]", "values": [{"measurement": "Expression of the AR target gene TMPRSS2", "setting": "[1]; R1881 1 nM pre-treatment for 2 hours", "result": "induced"}]}, {"molecule": "CCNC(=O)c1noc(-c2cc(C(C)C)c(O)cc2O)c1-c1ccc(CN2CCOCC2)cc1", "note": "[NVP-AUY922]", "values": [{"measurement": "GR-α translational isoforms protein level", "setting": "[2]", "result": "depleted"}, {"measurement": "AR protein level", "setting": "[3]", "result": "depleted"}]}, {"molecule": "CC(C)c1cc(-c2n[nH]c(=O)n2-c2ccc3c(ccn3C)c2)c(O)cc1O", "note": "[ganetespib]", "values": [{"measurement": "GR-α translational isoforms protein level", "setting": "[2]", "result": "depleted"}, {"measurement": "Dexamethasone induction of GR target gene transcripts (SGK1 and MKP1/DUSP1)", "setting": "[4]", "result": "reduced"}, {"measurement": "AR protein level", "setting": "[3]", "result": "depleted"}, {"measurement": "Androgen-induced expression of the AR target gene TMPRSS2", "setting": "[1]; R1881 1 nM, concomitant ganetespib 50 nM", "result": "decreased"}]}, {"molecule": "C[C@@H]1C[C@H]2[C@@H]3CCC4=CC(=O)C=C[C@]4(C)[C@@]3(F)[C@@H](O)C[C@]2(C)[C@@]1(O)C(=O)CO", "note": "[dexamethasone]", "values": [{"measurement": "ANGPTL4 transcript level", "setting": "[5]", "result": 8.5}, {"measurement": "BCL6 transcript level", "setting": "[5]", "result": 2.6}, {"measurement": "CALCR transcript level", "setting": "[5]", "result": 4.3}, {"measurement": "CEBPB transcript level", "setting": "[5]", "result": 4.1}, {"measurement": "DDIT4 transcript level", "setting": "[5]", "result": 2.9}, {"measurement": "DUSP1 transcript level", "setting": "[5]", "result": 3.7}, {"measurement": "EDN1 transcript level", "setting": "[5]", "result": 2.3}, {"measurement": "ERRFI1 transcript level", "setting": "[5]", "result": 3.4}, {"measurement": "FKBP5 transcript level", "setting": "[5]", "result": 15.5}, {"measurement": "GLUL transcript level", "setting": "[5]", "result": 1.5}, {"measurement": "IL6R transcript level", "setting": "[5]", "result": 1.9}, {"measurement": "KLF9 transcript level", "setting": "[5]", "result": 9.5}, {"measurement": "KLF13 transcript level", "setting": "[5]", "result": 2.5}, {"measurement": "LOX transcript level", "setting": "[5]", "result": 2.4}, {"measurement": "MT1E transcript level", "setting": "[5]", "result": 2.7}, {"measurement": "MT2A transcript level", "setting": "[5]", "result": 3.0}, {"measurement": "NFKBIA transcript level", "setting": "[5]", "result": 2.0}, {"measurement": "PER1 transcript level", "setting": "[5]", "result": 12.7}, {"measurement": "RHOB transcript level", "setting": "[5]", "result": 5.6}, {"measurement": "SESN1 transcript level", "setting": "[5]", "result": 1.4}, {"measurement": "SGK1 transcript level", "setting": "[5]", "result": 2.9}, {"measurement": "SLC19A2 transcript level", "setting": "[5]", "result": 2.0}, {"measurement": "SLC22A5 transcript level", "setting": "[5]", "result": 1.3}, {"measurement": "TNFAIP3 transcript level", "setting": "[5]", "result": 2.2}, {"measurement": "TSC22D3 transcript level", "setting": "[5]", "result": 22.8}, {"measurement": "USP2 transcript level", "setting": "[5]", "result": 3.1}, {"measurement": "XDH transcript level", "setting": "[5]", "result": 1.3}, {"measurement": "ZFP36 transcript level", "setting": "[5]", "result": 4.3}]}]}
